Data taken from ChEMBL document CHEMBL1144270, “Carbonic anhydrase inhibitors. Interaction of isozymes I, II, IV, V, and IX with carboxylates” (Bioorg Med Chem Lett, 2005).

Columns and labels:
[1] = biological target: Carbonic anhydrase 5A, mitochondrial (Homo sapiens, UniProt P35218); assay: Binding affinity against human cytosolic Carbonic anhydrase V
[2] = biological target: Carbonic anhydrase 9 (Homo sapiens, UniProt Q16790); assay: Binding affinity against human cytosolic Carbonic anhydrase IX
[3] = biological target: Carbonic anhydrase 2 (Homo sapiens, UniProt P00918); assay: Binding affinity against human cytosolic Carbonic anhydrase II
[4] = biological target: Carbonic anhydrase 4 (Homo sapiens, UniProt P22748); assay: Binding affinity against human cytosolic Carbonic anhydrase IV
Chain of Carbonic anhydrase 4 (P22748 whole entry): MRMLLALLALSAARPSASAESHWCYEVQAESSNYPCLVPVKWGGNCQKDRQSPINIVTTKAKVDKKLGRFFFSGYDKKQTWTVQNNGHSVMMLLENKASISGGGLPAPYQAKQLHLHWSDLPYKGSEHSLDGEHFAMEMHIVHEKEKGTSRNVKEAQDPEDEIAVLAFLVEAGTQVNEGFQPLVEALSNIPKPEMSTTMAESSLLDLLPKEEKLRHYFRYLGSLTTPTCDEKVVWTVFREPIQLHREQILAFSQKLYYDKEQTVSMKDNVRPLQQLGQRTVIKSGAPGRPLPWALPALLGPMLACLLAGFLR

[5] = biological target: Carbonic anhydrase 1 (Homo sapiens, UniProt P00915); assay: Binding affinity against human cytosolic Carbonic anhydrase I (A = activator)
Chain of Carbonic anhydrase 1 (P00915 whole entry): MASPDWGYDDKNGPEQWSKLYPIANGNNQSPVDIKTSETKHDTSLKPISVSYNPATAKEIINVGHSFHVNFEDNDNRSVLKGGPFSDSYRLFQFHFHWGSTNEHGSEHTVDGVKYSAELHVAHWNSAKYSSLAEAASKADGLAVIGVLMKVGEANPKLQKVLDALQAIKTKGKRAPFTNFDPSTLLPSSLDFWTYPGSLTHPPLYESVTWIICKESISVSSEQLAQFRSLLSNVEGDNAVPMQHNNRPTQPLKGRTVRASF

Chain of Carbonic anhydrase 5A, mitochondrial (P35218 whole entry): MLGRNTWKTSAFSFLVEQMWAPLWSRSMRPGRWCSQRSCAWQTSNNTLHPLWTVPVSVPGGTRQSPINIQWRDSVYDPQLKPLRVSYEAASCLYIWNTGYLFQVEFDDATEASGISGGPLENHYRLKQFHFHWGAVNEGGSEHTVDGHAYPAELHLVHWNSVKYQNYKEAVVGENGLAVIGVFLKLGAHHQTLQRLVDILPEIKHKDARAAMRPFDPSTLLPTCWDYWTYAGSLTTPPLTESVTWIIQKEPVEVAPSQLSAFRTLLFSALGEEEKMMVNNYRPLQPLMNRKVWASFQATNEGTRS

SMILES	Ki [1] [µM]	Ki [2] [µM]	Ki [3] [µM]	Ki [4] [µM]	Ki [5]
O=C(O)c1c(F)c(F)cc(F)c1F	1620	770	6	74.5	–
O=C([O-])CC(=O)[O-].[Na+].[Na+] [DISODIUM MALONATE]	6000	1270	1620	2.8	Activator
O=C(O)C[C@H](O)C(=O)O [E350]	2490	7420	1870	53.7	Activator
CC(=O)C(=O)[O-].[Na+] [PYRUVATE SODIUM]	5500	1120	2110	14.5	Activator
CC(=O)[O-].[Na+] [SODIUM ACETATE]	25900	> 150000	130	550	Activator
O=C([O-])c1ccccc1.[Na+] [SODIUM BENZOATE]	7010	> 150000	30	74.7	Activator
O=C([O-])O.[Na+] [SODIUM BICARBONATE]	82000	–	–	–	–
O=C([O-])CC(O)(CC(=O)[O-])C(=O)[O-].[Na+].[Na+].[Na+] [SODIUM CITRATE]	1670	4930	2160	0.099	Activator
O=C[O-].[Na+] [SODIUM FORMATE]	9970	–	–	–	Activator
CC(O)C(=O)[O-].[Na+] (configuration not stated) [SODIUM LACTATE]	3370	> 150000	3220	1530	Activator
O=C([O-])C(=O)[O-].[Na+].[Na+] [SODIUM OXALATE]	2230	3280	990	0.099	Activator
